Here are results for 6 molecules from PMC10463259, “Efficient NADPH-dependent dehalogenation afforded by a self-sufficient reductive dehalogenase” (The Journal of Biological Chemistry, 2023).

The target in data set [1] is T1, JtRdhA (reductive dehalogenase) (Jhaorihella thermophila, UniProt A0A1H5TYU2).
T1 construct: gene SAMN05421751_103106; full-length, N-terminal His-MBP-TEV fusion (JtRdhA^MBP), WP_104007082
T1 sequence (A0A1H5TYU2 1-1069): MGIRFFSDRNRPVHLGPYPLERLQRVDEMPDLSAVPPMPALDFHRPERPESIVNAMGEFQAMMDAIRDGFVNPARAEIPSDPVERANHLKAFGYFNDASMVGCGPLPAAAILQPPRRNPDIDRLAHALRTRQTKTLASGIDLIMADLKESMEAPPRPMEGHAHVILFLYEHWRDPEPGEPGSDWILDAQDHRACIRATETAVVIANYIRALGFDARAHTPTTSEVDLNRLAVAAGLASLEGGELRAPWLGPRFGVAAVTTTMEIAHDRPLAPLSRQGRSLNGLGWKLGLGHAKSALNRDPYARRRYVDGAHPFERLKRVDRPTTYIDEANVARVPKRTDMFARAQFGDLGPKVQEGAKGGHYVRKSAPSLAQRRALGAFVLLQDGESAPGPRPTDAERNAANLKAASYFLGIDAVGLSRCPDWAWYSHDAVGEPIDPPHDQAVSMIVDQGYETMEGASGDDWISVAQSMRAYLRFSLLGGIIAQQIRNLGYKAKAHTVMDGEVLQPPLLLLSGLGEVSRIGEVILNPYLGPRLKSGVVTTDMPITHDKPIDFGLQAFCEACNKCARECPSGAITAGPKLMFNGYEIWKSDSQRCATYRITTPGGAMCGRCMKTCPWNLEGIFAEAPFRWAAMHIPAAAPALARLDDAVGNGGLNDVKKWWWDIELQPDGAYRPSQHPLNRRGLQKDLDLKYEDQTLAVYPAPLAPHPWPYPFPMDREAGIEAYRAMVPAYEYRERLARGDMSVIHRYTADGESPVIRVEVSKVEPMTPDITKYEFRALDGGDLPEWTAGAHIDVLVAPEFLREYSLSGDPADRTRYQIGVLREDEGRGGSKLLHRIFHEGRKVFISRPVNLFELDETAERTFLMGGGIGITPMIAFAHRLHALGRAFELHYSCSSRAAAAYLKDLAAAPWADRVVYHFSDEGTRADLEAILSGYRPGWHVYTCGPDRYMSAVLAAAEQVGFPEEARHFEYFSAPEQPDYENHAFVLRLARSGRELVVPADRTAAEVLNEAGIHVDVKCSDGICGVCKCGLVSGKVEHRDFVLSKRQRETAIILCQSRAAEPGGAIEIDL
The data set can be described thus: biphasic turnover assay, LC-MS of debrominated products. Format: biochemical.

Data set [2] addresses T1, JtRdhA (reductive dehalogenase). The data set can be described thus: substrate turnover by purified enzyme, NADPH consumption and HPLC. Type of data set: biochemical.
The target is the same in data set [3]. The data set can be described thus: NADPH consumption assay, Dixon plot vs 35-DB-4-OH. Format: biochemical.
Substrate in data set [4]: O=C(O)c1ccc(O)c(Br)c1
Put plainly: steady-state kinetics by NADPH consumption (KM), purified enzyme. Type of data set: biochemical, Jhaorihella thermophila. Conditions: cobalamin, 2x [4Fe-4S], [2Fe-2S], FMN.

Substrate in data set [5]: O=C(O)c1cc(Br)c(O)c(Br)c1
Put plainly: EPR of cob(II)alamin with substrate (Br superhyperfine coupling); KM from steady-state NADPH oxidation. As to conditions: cobalamin, 2x [4Fe-4S], [2Fe-2S], FMN active site; displaces chloride, substrate bromine atoms less than […] Å from the Co2+ ion. Format: biochemical, Jhaorihella thermophila.

As for `CC(C)(c1cc(Br)c(O)c(Br)c1)c1cc(Br)c(O)c(Br)c1` [compound 1, tetrabromobisphenol A], the “biphasic turnover assay, LC-MS of debrominated products” value in data set [1] is recorded as “one of the most commonly used flame retardants TBBPA was determined to be a substrate for JtRdhA^MBP”.

For `O=C(O)Cc1ccc(O)c(Br)c1` [3-bromo-4-hydroxyphenylacetic acid], in data set [2], the “NADPH consumption μM min^-1” value came out at 147 ± 3 µM/min.

As a reminder, the Ki is the equilibrium dissociation constant of an inhibitor or competing ligand from its target. In turn, `O=C(O)c1cc(Cl)c(O)c(Cl)c1` [35-DC-4-OH, 3,5-dichloro-4-hydroxybenzoic acid] showed an inhibition constant (Ki) in data set [3] of 13.7 ± 3.6 µM.

As for `Oc1ccccc1I` [2-Iodophenol, 2-iodophenol], the “NADPH consumption μM min^-1” value in data set [2] stood at 106 ± 3 µM/min.

Turning to `O=C(O)c1cc(I)c(O)c(I)c1` [3,5 Diiodo-4-hydroxybenzoic acid], the “NADPH consumption μM min^-1” value in data set [2] was determined as 124 ± 8 µM/min.

B1: JtRdhA (reductive dehalogenase) (Jhaorihella thermophila) (protein)
chain: MGIRFFSDRNRPVHLGPYPLERLQRVDEMPDLSAVPPMPALDFHRPERPESIVNAMGEFQAMMDAIRDGFVNPARAEIPSDPVERANHLKAFGYFNDASMVGCGPLPAAAILQPPRRNPDIDRLAHALRTRQTKTLASGIDLIMADLKESMEAPPRPMEGHAHVILFLYEHWRDPEPGEPGSDWILDAQDHRACIRATETAVVIANYIRALGFDARAHTPTTSEVDLNRLAVAAGLASLEGGELRAPWLGPRFGVAAVTTTMEIAHDRPLAPLSRQGRSLNGLGWKLGLGHAKSALNRDPYARRRYVDGAHPFERLKRVDRPTTYIDEANVARVPKRTDMFARAQFGDLGPKVQEGAKGGHYVRKSAPSLAQRRALGAFVLLQDGESAPGPRPTDAERNAANLKAASYFLGIDAVGLSRCPDWAWYSHDAVGEPIDPPHDQAVSMIVDQGYETMEGASGDDWISVAQSMRAYLRFSLLGGIIAQQIRNLGYKAKAHTVMDGEVLQPPLLLLSGLGEVSRIGEVILNPYLGPRLKSGVVTTDMPITHDKPIDFGLQAFCEACNKCARECPSGAITAGPKLMFNGYEIWKSDSQRCATYRITTPGGAMCGRCMKTCPWNLEGIFAEAPFRWAAMHIPAAAPALARLDDAVGNGGLNDVKKWWWDIELQPDGAYRPSQHPLNRRGLQKDLDLKYEDQTLAVYPAPLAPHPWPYPFPMDREAGIEAYRAMVPAYEYRERLARGDMSVIHRYTADGESPVIRVEVSKVEPMTPDITKYEFRALDGGDLPEWTAGAHIDVLVAPEFLREYSLSGDPADRTRYQIGVLREDEGRGGSKLLHRIFHEGRKVFISRPVNLFELDETAERTFLMGGGIGITPMIAFAHRLHALGRAFELHYSCSSRAAAAYLKDLAAAPWADRVVYHFSDEGTRADLEAILSGYRPGWHVYTCGPDRYMSAVLAAAEQVGFPEEARHFEYFSAPEQPDYENHAFVLRLARSGRELVVPADRTAAEVLNEAGIHVDVKCSDGICGVCKCGLVSGKVEHRDFVLSKRQRETAIILCQSRAAEPGGAIEIDL
notes: full-length, N-terminal His-MBP-TEV fusion (JtRdhA^MBP), WP_104007082
One may read the Km as the substrate concentration at which the rate is half of its maximum. For the molecule B1, the Km in data set [4] stood at 21 ± 0.2 µM; in data set [5], 19 ± 0.7 µM.
